{
  "source": "patent US20250059229A1",
  "about": "“Compositions and Methods for Selective Labeling of Secondary Amines” (Emory University, priority 2021, published 2025)",
  "assay": "Fluorescence (chromophoric) properties of 2H-indazole-3-carbaldehyde",
  "type": "physicochemical",
  "settings": "FIG. 9D",
  "data": [
    {"smiles": "O=Cc1[nH]nc2ccccc12", "note": "[2H-indazole-3-carbaldehyde]", "values": [
      {"measurement": "fluorescence wavelength", "value": "about 500 nm"},
      {"measurement": "increase in fluorescence as compared to unmodified PAF", "setting": "compared to unmodified PAF", "value": 100, "unit": "fold"}
    ]}
  ]
}
